Where two headings read alike, the source gives them in different places. Blank lines part the entries; values can stand above or below the compound they belong to.
Columns and labels:
[1] = tested on: tubulin; settings: reported by David et al.; cited from earlier work
[2] = tested on: tubulin; assay: Polymer formation without GTP at 0 °C; type: biochemical, bovine; settings: no GTP; for % tubulin in polymer ± SE: single compound 30 μM, 20 min, 1.0 mg/mL tubulin; for spiral formation (centrifugation study, Fig. 7A): 10 μM tubulin, concentrations up to 30 μM
[3] = tested on: tubulin; assay: Inhibition of MAP-dependent microtubule assembly; type: biochemical, bovine
[4] = target: tubulin (Bos taurus, UniProt P81947+Q6B856); assay: Aberrant tubulin assembly; settings: for extent of aberrant assembly reaction (turbidity), % of its maximum: within 20 min at 0 °C, 10 μM compound, 10 μM tubulin, 0.6 M glutamate, 1.0 mM MgCl2, 50 μM GTP
Chain of tubulin (Bos taurus, UniProt P81947+Q6B856) (P81947 whole entry): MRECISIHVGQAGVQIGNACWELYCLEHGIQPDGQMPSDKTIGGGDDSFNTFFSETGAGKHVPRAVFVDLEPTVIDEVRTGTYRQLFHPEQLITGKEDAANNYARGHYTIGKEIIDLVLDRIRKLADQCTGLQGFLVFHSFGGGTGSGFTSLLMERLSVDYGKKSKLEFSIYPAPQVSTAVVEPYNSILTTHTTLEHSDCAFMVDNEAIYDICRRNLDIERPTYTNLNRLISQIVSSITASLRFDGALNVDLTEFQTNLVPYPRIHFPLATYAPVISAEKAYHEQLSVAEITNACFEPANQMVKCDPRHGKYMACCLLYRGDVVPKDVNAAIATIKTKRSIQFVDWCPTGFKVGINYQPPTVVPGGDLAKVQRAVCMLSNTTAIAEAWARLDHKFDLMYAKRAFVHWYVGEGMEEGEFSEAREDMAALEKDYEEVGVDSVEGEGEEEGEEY
Chain of tubulin (Bos taurus, UniProt P81947+Q6B856) (Q6B856 whole entry): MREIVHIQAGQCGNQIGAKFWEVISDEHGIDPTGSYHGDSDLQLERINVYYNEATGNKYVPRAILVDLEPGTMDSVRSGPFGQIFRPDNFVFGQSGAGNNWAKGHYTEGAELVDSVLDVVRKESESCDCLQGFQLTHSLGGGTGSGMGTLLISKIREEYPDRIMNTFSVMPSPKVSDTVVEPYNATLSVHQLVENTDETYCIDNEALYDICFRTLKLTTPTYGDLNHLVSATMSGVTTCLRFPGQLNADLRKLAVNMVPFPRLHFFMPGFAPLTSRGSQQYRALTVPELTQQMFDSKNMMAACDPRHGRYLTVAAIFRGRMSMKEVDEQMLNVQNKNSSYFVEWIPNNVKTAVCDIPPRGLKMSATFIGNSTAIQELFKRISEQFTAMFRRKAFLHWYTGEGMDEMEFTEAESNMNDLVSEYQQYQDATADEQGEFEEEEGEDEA

[5] = tested on: αβ-tubulin dimer; assay: Binding of radiolabeled compounds to αβ-tubulin dimer; design: species or system bovine; settings: radiolabeled compound
[6] = tested on: tubulin; type: binding, bovine; settings: for maximum stoichiometry of compound incorporation into aberrant polymer: 80 μM compound; for compound incorporated into induced polymers, as little as: substoichiometric reactions (abstract)
[7] = tested on: cultured cells; settings: cited from earlier work
[8] = 5 μM compound, 10 μM tubulin, 22 °C, 30 min
[9] = 10 μM radiolabeled ligand alone (Table 3)
[10] = compound and tubulin equimolar (10 μM each)

Compound: COc1cc2cc(c1Cl)N(C)C(=O)C[C@H](OC(=O)[C@H](C)N(C)C(C)=O)[C@]1(C)O[C@H]1[C@H](C)[C@@H]1C[C@@](O)(NC(=O)O1)[C@H](OC)/C=C/C=C(\C)C2 [Maytansine]
- inhibition of (−)-rhazinilam aberrant assembly reaction [1]: inhibited

Compound: N#Cc1c(-c2ccccc2)c(-c2ccccc2)nn(Cc2nn[nH]n2)c1=O [NSC 608593]
- % tubulin in polymer ± SE [2]: 0 ± 1%

Compound: Cc1nn(CC(=O)O)c(=O)c(C#N)c1-c1ccccc1 [NSC 608600]
- effect on microtubule assembly [3]: no significant effect on microtubule assembly

Compound: Cc1c(-c2ccccc2)nn(CC(=O)O)c(=O)c1C#N [NSC 608602]
- effect on microtubule assembly [3]: no significant effect on microtubule assembly

- delay of aberrant assembly after addition of compound ([4]; 0 °C, 0.6 M monosodium glutamate, 50 μM GTP, 1 mM MgCl2, 2% dimethyl sulfoxide): about 1 min
- extent of aberrant assembly reaction (turbidity), % of its maximum [4]: 30–35%
- binding to the αβ-tubulin dimer [5]: unable to demonstrate binding
Compound: N#Cc1c(-c2ccc(F)cc2)c(-c2ccc(F)cc2)nn(Cc2nn[nH]n2)c1=O [NSC 613241]
- % of the tubulin in polymer pellet [6, 8]: 73%
- % tubulin recovered in pellet ([6]; 10 μM [3H](−)-rhazinilam plus 80 μM nonradiolabeled inhibitor): 89 ± 6.4%
- % tubulin recovered in pellet [6, 9]: 72 ± 5.4%
- Ligand bound/tubulin in aberrant polymer ± SD ([6]; 10 μM radiolabeled ligand alone, 22 °C, 30 min (Table 3)): 0.15 ± 0.013
- % of the tubulin in polymer pellet ([6]; 20 μM compound, 10 μM tubulin): about 90%
- % of the tubulin in polymer ([6]; 40 μM compound, 10 μM tubulin): ~100%
- stoichiometry of compound to tubulin in the pellets ([6]; 40 μM compound, 10 μM tubulin): 0.42
- maximum stoichiometry of compound incorporation into aberrant polymer ([6]; 10 μM tubulin): 0.62
- stoichiometry of compound to tubulin in the pellets [6, 10]: 0.11
- compound incorporated into induced polymers, as little as [6]: 0.1–0.2 mol compound/mol of tubulin
- spiral formation (centrifugation study, Fig. 7A) [2]: minimal
- % tubulin in polymer ± SE [2]: 0 ± 2%

Compound: CC[C@]1(O)C[C@@H]2CN(CCc3c([nH]c4ccccc34)[C@@](C(=O)OC)(c3cc4c(cc3OC)N(C)[C@H]3[C@@](O)(C(=O)OC)[C@H](OC(C)=O)[C@]5(CC)C=CCN6CC[C@]43[C@@H]65)C2)C1 [Vinblastine]
- inhibition of (−)-rhazinilam aberrant assembly reaction [1]: inhibited

- extent of aberrant assembly reaction (turbidity), % of its maximum [4]: little or no change in turbidity
- binding to the αβ-tubulin dimer [5]: unable to demonstrate binding
Compound: (−)-Rhazinilam [reference compound]
- IC50 values in treated cells [7]: low μM range
- % of the tubulin in polymer pellet [6, 8]: 53%
- % tubulin recovered in pellet ([6]; 10 μM [3H]NSC 613241 plus 80 μM nonradiolabeled inhibitor): 95 ± 5.2%
- % tubulin recovered in pellet [6, 9]: 37 ± 5.1%
- % of the tubulin in polymer pellet ([6]; 20 μM compound, 10 μM tubulin): about 90%
- % of the tubulin in polymer ([6]; 40 μM compound, 10 μM tubulin): ~100%
- stoichiometry of compound to tubulin in the pellets ([6]; 40 μM compound, 10 μM tubulin): 0.47
- maximum stoichiometry of compound incorporation into aberrant polymer ([6]; 10 μM tubulin): 0.68
- stoichiometry of compound to tubulin in the pellets [6, 10]: 0.13
- compound incorporated into induced polymers, as little as [6]: 0.1–0.2 mol compound/mol of tubulin
- spiral formation (centrifugation study, Fig. 7A) [2]: minimal
- % tubulin in polymer ± SE [2]: 0 ± 2%
